Results reported in patent US20260049092A1, “ANTIBACTERIAL COMPOUNDS” (Blacksmith Medicines, Inc., priority 2022, published 2026).
Converted amounts (≈) assume the structure as drawn. Where two headings read alike, the source gives them in different places. Values belong to the molecule of their own block, whether it stands above or below them.

Legend:
Test in all cases: Bacterial susceptibility testing (MIC, broth microdilution)
Assay type in all cases: cell-based
[1] = test system: P. aeruginosa ATCC27853; conditions: Pseudomonas aeruginosa
How it was run: (§1)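 CLSI broth microdilution was run in cation-adjusted Mueller-Hinton broth with an inoculum of 3×10^5–7×10^5 CFU/mL and 2-fold compound dilutions. Plates were incubated in ambient air at 35° C for 18-24 h. MIC was the lowest concentration preventing visible growth (OD600 nm<0.05).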

[2] = test system: E. coli ATCC25922; conditions: Escherichia coli
How it was run: as §1

[3] = test system: P. aeruginosa PAO1; conditions: Pseudomonas aeruginosa
How it was run: as §1

[4] = test system: K. pneumoniae ATCC13883; conditions: Klebsiella pneumoniae
How it was run: as §1

[5] = ATCC27853, broth microdilution, cation adjusted Mueller-Hinton Broth, 35° C., 18-24 h, read-out: P. aeruginosa ATCC27853 MIC
[6] = ATCC25922, broth microdilution, cation adjusted Mueller-Hinton Broth, 35° C., 18-24 h, read-out: E. coli ATCC25922 MIC
[7] = PAO1, broth microdilution, cation adjusted Mueller-Hinton Broth, 35° C., 18-24 h, read-out: P. aeruginosa PAO1 MIC
[8] = ATCC13883, broth microdilution, cation adjusted Mueller-Hinton Broth, 35° C., 18-24 h, read-out: K. pneumoniae ATCC13883 MIC
[9] = ATCC27853, read-out: P. aeruginosa ATCC27853 MIC
[10] = ATCC25922, read-out: E. coli ATCC25922 MIC
[11] = PAO1, read-out: P. aeruginosa PAO1 MIC
[12] = ATCC13883, read-out: K. pneumoniae ATCC13883 MIC

SMILES: C[C@H](O)c1nccn1[C@@H](C#Cc1ccc(-c2ccc(O[C@@H]3COC[C@H]3O)cc2Cl)cc1)CO (single isomer, unassigned) [Compound 47]
MIC [1, 5]: 4 µg/mL (≈ 8.53 µM)
MIC [2, 6]: 1 µg/mL (≈ 2.13 µM)
MIC [3, 7]: 4 µg/mL (≈ 8.53 µM)
MIC [4, 8]: 4 µg/mL (≈ 8.53 µM)

SMILES: C[C@H](O)c1nccn1[C@@H](C#Cc1ccc(-c2ccc3c(c2)OCCO3)cc1)CO [Compound 82, (S)-4-(4-(2,3-dihydrobenzo[b][1,4]dioxin-6-yl)phenyl)-2-(2-((S)-1-hydroxyethyl)-1H-imidazol-1-yl) but-3-yn-1-ol]
MIC [1, 5]: > 32 µg/mL
MIC [2, 6]: 0.25 µg/mL (≈ 0.64 µM)
MIC [3, 7]: 4 µg/mL (≈ 10.2 µM)
MIC [4, 8]: 1 µg/mL (≈ 2.56 µM)

SMILES: C[C@H](O)c1nccn1[C@@H](C#Cc1ccc(-c2ccc(O[C@H]3COC[C@@H]3O)cc2F)cc1)CO (single isomer, unassigned) [Compound 2]
MIC [1, 5]: 4 µg/mL (≈ 8.84 µM)
MIC [2, 6]: 1 µg/mL (≈ 2.21 µM)
MIC [3, 7]: 2 µg/mL (≈ 4.42 µM)
MIC [4, 8]: 2 µg/mL (≈ 4.42 µM)

SMILES: C[C@H](O)c1nccn1[C@@H](C#Cc1ccc(-c2ccc(O[C@@H]3CCOC[C@H]3O)c(F)c2)cc1)CO (racemic) [Compound 51, (rac-trans)-4-((3-fluoro-4′-((S)-4-hydroxy-3-(2-((S)-1-hydroxyethyl)-1H-imidazol-1-yl)but-1-yn-1-yl)-[1,1′-biphenyl]-4-yl)oxy)tetrahydro-2H-pyran-3-ol]
MIC [1, 5]: 8 µg/mL (≈ 17.1 µM)
MIC [2, 6]: 2 µg/mL (≈ 4.29 µM)
MIC [3, 7]: 2 µg/mL (≈ 4.29 µM)
MIC [4, 8]: 4 µg/mL (≈ 8.57 µM)

SMILES: C[C@H](O)c1nccn1[C@@H](C#Cc1ccc(-c2ccc(O[C@@H]3COC[C@H]3O)c(F)c2F)cc1)CO (single isomer, unassigned) [Compound 13]
MIC [1, 5]: 16 µg/mL (≈ 34 µM)
MIC [2, 6]: 2 µg/mL (≈ 4.25 µM)
MIC [3, 7]: 4 µg/mL (≈ 8.5 µM)
MIC [4, 8]: 4 µg/mL (≈ 8.5 µM)

SMILES: C[C@H](O)c1nccn1[C@@H](C#Cc1ccc(-c2ccc(N3CCC3=O)cc2)cc1)CO (single isomer, unassigned) [Compound 109]
MIC [1, 5]: > 32 µg/mL
MIC [2, 6]: 0.62 µg/mL (≈ 1.54 µM)
MIC [3, 7]: 2 µg/mL (≈ 4.98 µM)
MIC [4, 8]: 1.5 µg/mL (≈ 3.74 µM)

SMILES: C[C@H](O)c1nccn1[C@@H](C#Cc1ccc(-c2ccc(O[C@@H]3CCOC[C@H]3O)cc2F)cc1)CO (single isomer, unassigned) [Compound 55]
MIC [1, 5]: 8 µg/mL (≈ 17.1 µM)
MIC [2, 6]: 1 µg/mL (≈ 2.14 µM)
MIC [3, 7]: 4 µg/mL (≈ 8.57 µM)
MIC [4, 8]: 4 µg/mL (≈ 8.57 µM)

SMILES: C[C@H](O)c1nccn1[C@@H](C#Cc1ccc(-c2ccn(C)c(=O)c2)cc1)CO [Compound 112, 4-(4-((S)-4-hydroxy-3-(2-((S)-1-hydroxyethyl)-1H-imidazol-1-yl)but-1-yn-1-yl)phenyl)-1-methylpyridin-2(1H)-one]
MIC [1, 5]: > 32 µg/mL
MIC [2, 6]: > 32 µg/mL
MIC [3, 7]: > 32 µg/mL
MIC [4, 8]: > 32 µg/mL

SMILES: C[C@H](O)c1nccn1[C@@H](C#Cc1ccc(-c2ccc3c(c2)NC(=O)C3)cc1)CO [Compound 84, 6-(4-((S)-4-hydroxy-3-(2-((S)-1-hydroxyethyl)-1H-imidazol-1-yl)but-1-yn-1-yl)phenyl)indolin-2-one]
MIC [1, 5]: 16 µg/mL (≈ 41.3 µM)
MIC [2, 6]: 8 µg/mL (≈ 20.6 µM)
MIC [3, 7]: 8 µg/mL (≈ 20.6 µM)
MIC [4, 8]: 32 µg/mL (≈ 82.6 µM)

SMILES: Cc1cc(-c2ccc(C#C[C@@H](CO)n3ccnc3[C@H](C)O)cc2)ccc1O[C@@H]1COC[C@H]1O (single isomer, unassigned) [Compound 113]
MIC [1, 5]: > 32 µg/mL
MIC [2, 6]: 4 µg/mL (≈ 8.92 µM)
MIC [3, 7]: 32 µg/mL (≈ 71.3 µM)
MIC [4, 8]: 8 µg/mL (≈ 17.8 µM)

SMILES: C[C@H](O)c1nccn1[C@@H](C#Cc1ccc(-c2ccc(OC3CN(C(N)=O)C3)cc2)cc1)CO [Compound 94, 3-((4′-((S)-4-hydroxy-3-(2-((S)-1-hydroxyethyl)-1H-imidazol-1-yl)but-1-yn-1-yl)-[1,1′-biphenyl]-4-yl)oxy)azetidine-1-carboxamide]
MIC [1, 9]: 2 µg/mL (≈ 4.48 µM)
MIC [2, 10]: 1 µg/mL (≈ 2.24 µM)
MIC [3, 11]: 2 µg/mL (≈ 4.48 µM)
MIC [4, 12]: 4 µg/mL (≈ 8.96 µM)

SMILES: C[C@H](O)c1nccn1[C@@H](C#Cc1ccc(-c2ccc(OC3CN(c4nccn4C)C3)cc2)cc1)CO [Compound 98, (S)-2-(2-((S)-1-hydroxyethyl)-1H-imidazol-1-yl)-4-(4′-((1-(1-methyl-1H-imidazol-2-yl)azetidin-3-yl)oxy)-[1,1′-biphenyl]-4-yl)but-3-yn-1-ol]
MIC [1, 9]: 8 µg/mL (≈ 16.5 µM)
MIC [2, 10]: 0.5 µg/mL (≈ 1.03 µM)
MIC [3, 11]: 4 µg/mL (≈ 8.27 µM)
MIC [4, 12]: 2 µg/mL (≈ 4.14 µM)

Continued, values first:

MIC [1, 5]: 4 µg/mL (≈ 8.76 µM)
MIC [2, 6]: 0.5 µg/mL (≈ 1.1 µM)
MIC [3, 7]: 1 µg/mL (≈ 2.19 µM)
MIC [4, 8]: 1 µg/mL (≈ 2.19 µM)
SMILES: C[C@H](O)c1nccn1[C@@H](C#Cc1ccc(-c2ccc(O[C@H]3C[C@H](NCC#N)C3)cc2)cc1)CO (racemic) [Compound 121, 2-(((rac-trans)-3-((4′-((S)-4-hydroxy-3-(2-((S)-1-hydroxyethyl)-1H-imidazol-1-yl)but-1-yn-1-yl)-[1,1′-biphenyl]-4-yl)oxy)cyclobutyl)amino) acetonitrile]

MIC [1, 5]: 4 µg/mL (≈ 9.27 µM)
MIC [2, 6]: 1 µg/mL (≈ 2.32 µM)
MIC [3, 7]: 4 µg/mL (≈ 9.27 µM)
MIC [4, 8]: 4 µg/mL (≈ 9.27 µM)
SMILES: C[C@H](O)c1nccn1[C@@H](C#Cc1ccc(-c2ccc(N[C@@H]3CCC[C@H]3O)cc2)cc1)CO [Compound 78, (1R,2R)-2-((4′-((S)-4-hydroxy-3-(2-((S)-1-hydroxyethyl)-1H-imidazol-1-yl)but-1-yn-1-yl)-[1,1′-biphenyl]-4-yl)amino)cyclopentan-1-ol]

MIC [1, 5]: 4 µg/mL (≈ 9.27 µM)
MIC [2, 6]: 0.5 µg/mL (≈ 1.16 µM)
MIC [3, 7]: 4 µg/mL (≈ 9.27 µM)
MIC [4, 8]: 2 µg/mL (≈ 4.63 µM)
SMILES: C[C@H](O)c1nccn1[C@@H](C#Cc1ccc(-c2ccc(N[C@H]3CCC[C@@H]3O)cc2)cc1)CO (single isomer, unassigned) [Compound 77]

MIC [1, 5]: 4 µg/mL (≈ 9.08 µM)
MIC [2, 6]: 0.25 µg/mL (≈ 0.567 µM)
MIC [3, 7]: 2 µg/mL (≈ 4.54 µM)
MIC [4, 8]: 0.5 µg/mL (≈ 1.13 µM)
SMILES: C[C@H](O)c1nccn1[C@@H](C#Cc1ccc(-c2ccc(C3CN(CCC#N)C3)cc2)cc1)CO [Compound 140, 3-(3-(4′-((S)-4-hydroxy-3-(2-((S)-1-hydroxyethyl)-1H-imidazol-1-yl)but-1-yn-1-yl)-[1,1′-biphenyl]-4-yl)azetidin-1-yl)propanenitrile]

MIC [1, 5]: > 32 µg/mL
MIC [2, 6]: 1 µg/mL (≈ 2.19 µM)
MIC [3, 7]: 2 µg/mL (≈ 4.38 µM)
MIC [4, 8]: 2 µg/mL (≈ 4.38 µM)
SMILES: C[C@H](O)c1nccn1[C@@H](C#Cc1ccc(-c2ccc(O[C@H]3C[C@@H](NCC#N)C3)cc2)cc1)CO (racemic) [Compound 131, 2-((rac-cis)-3-((4′-((S)-4-hydroxy-3-(2-((S)-1-hydroxyethyl)-1H-imidazol-1-yl)but-1-yn-1-yl)-[1,1′-biphenyl]-4-yl)oxy)cyclobutyl)amino) acetonitrile]

MIC [1, 5]: > 32 µg/mL
MIC [2, 6]: 4 µg/mL (≈ 7.96 µM)
MIC [3, 7]: 8 µg/mL (≈ 15.9 µM)
MIC [4, 8]: 8 µg/mL (≈ 15.9 µM)
SMILES: C[C@H](O)c1nccn1[C@@H](C#Cc1ccc(-c2ccc(O[C@H]3COC[C@]3(O)C(F)(F)F)cc2)cc1)CO (racemic) [Compound 119, (rac-cis)-4-((4′-((S)-4-hydroxy-3-(2-((S)-1-hydroxyethyl)-1H-imidazol-1-yl)but-1-yn-1-yl)-[1,1′-biphenyl]-4-yl)oxy)-3-(trifluoromethyl)tetrahydrofuran-3-ol]

MIC [1, 5]: 8 µg/mL (≈ 17.4 µM)
MIC [2, 6]: 1 µg/mL (≈ 2.17 µM)
MIC [3, 7]: 8 µg/mL (≈ 17.4 µM)
MIC [4, 8]: 2 µg/mL (≈ 4.34 µM)
SMILES: C[C@H](O)c1nccn1[C@@H](C#Cc1ccc(-c2ccc(OC3CN(CC#N)C3)c(F)c2)cc1)CO (single isomer, unassigned) [Compound 64]

MIC [1, 5]: 8 µg/mL (≈ 17.8 µM)
MIC [2, 6]: 2 µg/mL (≈ 4.46 µM)
MIC [3, 7]: 2 µg/mL (≈ 4.46 µM)
MIC [4, 8]: 2 µg/mL (≈ 4.46 µM)
SMILES: C[C@H](O)c1nccn1[C@@H](C#Cc1ccc(-c2ccc(O[C@H]3CCOC[C@@H]3O)cc2)cc1)CO [Compound 73, (3S,4S)-4-((4′-((S)-4-hydroxy-3-(2-((S)-1-hydroxyethyl)-1H-imidazol-1-yl)but-1-yn-1-yl)-[1,1′-biphenyl]-4-yl)oxy)tetrahydro-2H-pyran-3-ol]

MIC [1, 5]: 4 µg/mL (≈ 9.23 µM)
MIC [2, 6]: 2 µg/mL (≈ 4.61 µM)
MIC [3, 7]: 4 µg/mL (≈ 9.23 µM)
MIC [4, 8]: 4 µg/mL (≈ 9.23 µM)
SMILES: C[C@H](O)c1nccn1[C@@H](C#Cc1ccc(-c2ccc(N[C@H]3COC[C@@H]3O)cc2)cc1)CO [Compound 71, (3R,4S)-4-((4′-((S)-4-hydroxy-3-(2-((S)-1-hydroxyethyl)-1H-imidazol-1-yl)but-1-yn-1-yl)-[1,1′-biphenyl]-4-yl)amino)tetrahydrofuran-3-ol]

MIC [1, 5]: 4 µg/mL (≈ 9.89 µM)
MIC [2, 6]: 0.25 µg/mL (≈ 0.618 µM)
MIC [3, 7]: 2 µg/mL (≈ 4.94 µM)
MIC [4, 8]: 0.5 µg/mL (≈ 1.24 µM)
SMILES: C[C@H](O)c1nccn1[C@@H](C#Cc1ccc(-c2ccc(OC3COC3)cc2)cc1)CO (single isomer, unassigned) [Compound 107]
